Measurements from US11773137B2, “Arid5a peptide inhibitors” (KING FAISAL UNIVERSITY, priority 2019, dated 2023).
Where no end group is shown, it is not given here.

Tested on: polarized Th17 cells
Assay: IL-17 production by naïve CD4+ T cells cultured under Th17-polarizing conditions
Format: cell-based
Details: PIA at 15, 30 and 45 μM
Method: Naïve CD4^+ T cells were isolated from the spleen using MACS® CD4^+CD62L^+ isolation kit (Miltenyi Biotec). The isolated CD4^+CD62L^+ T cells were cultured in the presence of anti-CD3/CD28 dynabeads (Invitrogen), IL-6 (30 ng/mL; R&D Systems), transforming growth factor TGF-β1 (4 ng/mL; R&D Systems), anti-interferon IFN-γ and anti-IL-4 (10 μg/mL; Biolegend) for 72 h.
The intensities of Arid5a immunoblot bands and IL-17 concentrations are presented as mean±SD from at least three independent experiments produced similar results. The statistical significance between mean values was tested by one-way ANOVA. *p<0.05 was considered significant.
Arid5a plays an important role in the production of IL-17, a cytokine that plays pivotal roles in chronic inflammation and autoimmune diseases such as MS and rheumatoid arthritis, and cancer. Therefore, the effects of PIA (SEQ ID NO: 2) on IL-17 production by naïve CD4^+ cells cultured under Th17-polarizing conditions were examined. The CD4^+CD62L^+ T cells were cultured in the presence of anti-CD3/CD28 dynabeads, IL-6, TGF-β1, anti-IFN-γ and anti-IL-4.

## ACTVGGYE [PIA, ACTVGGYE]
  cell viability: no significant effects on cell viability
